Activity calls are given as the source filed them.
Columns and labels:
[1] = molecular target: T1, Small ubiquitin-related modifier 1 (Homo sapiens, UniProt P63165); assay: inhibitors of SUMO1 partner interactions, dose response, biochemical, FRET (AID 624383); format: functional; details: read-out: IC50_Mean
[2] = molecular target: T1, Small ubiquitin-related modifier 1; assay: inhibitors of SUMO1 peptide binding, dose response, biochemical, fluorescence polarization, uHTS hits (AID 624382); format: functional; details: read-out: IC50_Mean
[3] = molecular target: T2, Probable nicotinate-nucleotide adenylyltransferase (Staphylococcus aureus (strain N315), UniProt P65502); format: functional, Staphylococcus aureus subsp. aureus N315; details: read-out: IC50_Mean;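 as to IC50 Mean: confirmatory dose-response retesting of NadD inhibitor hits first found in an ultra-high-throughput screen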
[4] = molecular target: T2, Probable nicotinate-nucleotide adenylyltransferase; format: functional, Staphylococcus aureus subsp. aureus N315
[5] = molecular target: T3, Carboxy-terminal domain RNA polymerase II polypeptide A small phosphatase 1 (Homo sapiens, UniProt Q9GZU7); assay: inhibitors of CTDSP1, concentration-response testing, biochemical assay, absorbance-based, actives from ultra-high-throughput screening (AID 540297); format: functional
T3 sequence (Q9GZU7 whole entry): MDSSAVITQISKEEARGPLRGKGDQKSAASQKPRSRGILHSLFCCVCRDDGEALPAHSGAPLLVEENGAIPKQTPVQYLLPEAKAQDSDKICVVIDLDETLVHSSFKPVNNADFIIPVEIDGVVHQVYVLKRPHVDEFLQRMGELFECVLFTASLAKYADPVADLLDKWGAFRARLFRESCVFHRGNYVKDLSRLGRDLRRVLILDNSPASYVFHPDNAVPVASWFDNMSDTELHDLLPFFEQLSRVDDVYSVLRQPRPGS

[6] = molecular target: T4, Rac GTPase-activating protein 1 (Homo sapiens, UniProt Q9H0H5); assay: MgcRacGAP GTPase-activating activity inhibitors, confirmation, biochemical, ADP Hunter fluorescence, primary and confirmatory (AID 624330); format: functional
T4 sequence (Q9H0H5 whole entry): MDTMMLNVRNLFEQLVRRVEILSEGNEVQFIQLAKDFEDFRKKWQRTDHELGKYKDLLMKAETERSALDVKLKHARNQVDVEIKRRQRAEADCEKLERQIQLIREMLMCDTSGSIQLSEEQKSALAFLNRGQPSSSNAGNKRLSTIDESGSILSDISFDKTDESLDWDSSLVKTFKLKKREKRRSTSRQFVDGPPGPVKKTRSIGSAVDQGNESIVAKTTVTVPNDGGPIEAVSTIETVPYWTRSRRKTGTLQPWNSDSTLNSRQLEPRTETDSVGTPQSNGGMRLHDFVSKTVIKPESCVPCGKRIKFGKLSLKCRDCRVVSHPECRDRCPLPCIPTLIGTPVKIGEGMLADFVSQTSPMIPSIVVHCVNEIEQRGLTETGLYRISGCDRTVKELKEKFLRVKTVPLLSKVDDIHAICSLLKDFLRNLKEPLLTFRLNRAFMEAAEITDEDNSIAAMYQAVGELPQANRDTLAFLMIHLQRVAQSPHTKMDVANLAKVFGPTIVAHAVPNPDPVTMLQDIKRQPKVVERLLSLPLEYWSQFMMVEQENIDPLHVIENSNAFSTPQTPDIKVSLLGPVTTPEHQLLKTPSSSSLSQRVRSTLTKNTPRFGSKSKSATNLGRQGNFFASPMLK

[7] = HeLa cell cytotoxicity, dose response, cytotoxicity control for MgcRacGAP inhibitor project (AID 624300); format: functional
[8] = molecular target: T5, Replicative DNA helicase DnaB (Mycobacterium tuberculosis, UniProt P9WMR3); assay: DnaB intein splicing inhibitors, dose response, biochemical, cell-free fluorescence (AID 449749); format: functional
T5 sequence (P9WMR3 whole entry): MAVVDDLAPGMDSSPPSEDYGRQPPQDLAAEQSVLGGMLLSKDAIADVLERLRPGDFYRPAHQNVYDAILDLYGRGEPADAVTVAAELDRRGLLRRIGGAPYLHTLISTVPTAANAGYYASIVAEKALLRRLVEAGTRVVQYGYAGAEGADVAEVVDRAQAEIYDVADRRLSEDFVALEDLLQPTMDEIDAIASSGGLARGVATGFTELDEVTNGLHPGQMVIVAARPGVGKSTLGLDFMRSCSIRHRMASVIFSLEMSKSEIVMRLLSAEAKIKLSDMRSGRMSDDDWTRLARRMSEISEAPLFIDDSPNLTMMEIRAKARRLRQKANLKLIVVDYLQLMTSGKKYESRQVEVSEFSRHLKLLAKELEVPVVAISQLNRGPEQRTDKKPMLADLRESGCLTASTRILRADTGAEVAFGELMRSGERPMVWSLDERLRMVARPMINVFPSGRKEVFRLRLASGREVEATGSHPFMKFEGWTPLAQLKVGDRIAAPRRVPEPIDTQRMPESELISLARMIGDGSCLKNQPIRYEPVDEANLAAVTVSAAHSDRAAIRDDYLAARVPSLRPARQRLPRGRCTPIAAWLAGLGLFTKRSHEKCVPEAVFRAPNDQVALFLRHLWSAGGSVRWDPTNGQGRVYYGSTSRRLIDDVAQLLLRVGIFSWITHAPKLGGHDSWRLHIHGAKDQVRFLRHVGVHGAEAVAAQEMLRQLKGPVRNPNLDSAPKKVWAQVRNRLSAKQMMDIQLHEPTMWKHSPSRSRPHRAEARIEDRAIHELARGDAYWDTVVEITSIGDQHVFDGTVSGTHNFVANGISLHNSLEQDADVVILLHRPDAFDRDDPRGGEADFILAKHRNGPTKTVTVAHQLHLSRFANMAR

Protein RecA = molecular target: T6, Protein RecA (Mycobacterium tuberculosis, UniProt P9WHJ3); assay: Fluorescence Cell-Free Homogeneous Dose Retest to Identify Inhibitors of RecA-Intein Splicing Activity. [Related pubchem assays (depositor defined):AID2097, AID2223, AID489010, AID492950]; format: functional
T6 sequence (P9WHJ3 whole entry): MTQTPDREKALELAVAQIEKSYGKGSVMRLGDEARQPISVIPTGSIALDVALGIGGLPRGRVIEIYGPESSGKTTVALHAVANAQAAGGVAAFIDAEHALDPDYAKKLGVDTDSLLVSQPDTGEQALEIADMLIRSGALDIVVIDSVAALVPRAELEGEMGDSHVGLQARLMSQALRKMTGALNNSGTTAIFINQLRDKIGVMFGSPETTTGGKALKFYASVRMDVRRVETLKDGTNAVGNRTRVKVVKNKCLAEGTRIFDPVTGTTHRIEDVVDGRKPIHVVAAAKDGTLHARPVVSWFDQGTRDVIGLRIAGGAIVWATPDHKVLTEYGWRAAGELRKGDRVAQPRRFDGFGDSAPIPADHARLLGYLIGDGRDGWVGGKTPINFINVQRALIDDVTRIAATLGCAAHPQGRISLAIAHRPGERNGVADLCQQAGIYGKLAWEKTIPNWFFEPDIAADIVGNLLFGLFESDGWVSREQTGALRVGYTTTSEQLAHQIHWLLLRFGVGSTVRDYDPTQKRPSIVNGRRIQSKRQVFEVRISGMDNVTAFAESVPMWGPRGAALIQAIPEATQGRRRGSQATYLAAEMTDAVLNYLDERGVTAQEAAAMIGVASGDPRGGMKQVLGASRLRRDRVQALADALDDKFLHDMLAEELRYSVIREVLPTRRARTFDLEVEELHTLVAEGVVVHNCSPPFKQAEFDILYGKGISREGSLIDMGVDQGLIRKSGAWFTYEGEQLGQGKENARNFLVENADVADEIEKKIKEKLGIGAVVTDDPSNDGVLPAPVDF

Genome polyprotein = Genome polyprotein (dengue virus type 2, UniProt P29990); assay: Dengue-2 NS5 methyltransferase inhibitors, primary screen, biochemical, confirmation dose response (AID 588689); format: functional
[9] = cytotoxicity toward NIH3T3 fibroblasts, dose response, counter-screen, cell-based, ATP luminescence, mouse fibroblasts (AID 2010); format: functional;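 also: cells exposed to compound for about 90 hours before reading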
[10] = control 3'UTR Renilla luciferase suppression, dose response, counter-screen for Shn3 inhibitor project, cell-based, Clone20-Shn3RL, cherry-picked (AID 624133); format: functional
[11] = Shn3 3'UTR reporter inhibitors, dose response, cell-based, Clone20 osteoblasts, firefly luciferase, cherry-picked (AID 624132); format: functional;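 also: firefly luciferase luminescence from reporter carrying the Shn3 3'UTR in osteoblasts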
[12] = inhibitors of intracellular T. cruzi replication, confirmation, NIH3T3 host cells, beta-gal luminescence (AID 2044); format: functional, cell-based;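 also: intracellular parasites grown in NIH/3T3 mouse fibroblasts as host cells; luminescent beta-galactosidase reporter signal from transgenic T. cruzi replicating inside host cells; inhibitors lower the luminescence signal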
[13] = HepG2 cell cytotoxicity, dose response, cytotoxicity control for Shn3 inhibitor project, CellTiter-Glo, cherry-picked (AID 624134); format: functional, cell-based
[14] = Fluorescence-based cell-based high throughput dose response assay for inhibitors of the interaction of nucleotide-binding oligomerization domain containing 2 (NOD2) and the receptor-interacting serine-threonine kinase 2 (RIPK2).; format: functional; details: Homo sapiens
[15] = inhibitors of PGC1a acetylation in cells, dose response, cell-based, cherry-picked samples (AID 720514); format: functional;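 also: potency may reflect raised or lowered acetylation signal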
[16] = molecular target: T7, High affinity choline transporter 1 (Homo sapiens, UniProt Q9GZV3); assay: CHT inhibitors, dose response, cell-based, 5-point CRC, membrane potential dye (AID 504840); format: functional
T7 sequence (Q9GZV3 whole entry): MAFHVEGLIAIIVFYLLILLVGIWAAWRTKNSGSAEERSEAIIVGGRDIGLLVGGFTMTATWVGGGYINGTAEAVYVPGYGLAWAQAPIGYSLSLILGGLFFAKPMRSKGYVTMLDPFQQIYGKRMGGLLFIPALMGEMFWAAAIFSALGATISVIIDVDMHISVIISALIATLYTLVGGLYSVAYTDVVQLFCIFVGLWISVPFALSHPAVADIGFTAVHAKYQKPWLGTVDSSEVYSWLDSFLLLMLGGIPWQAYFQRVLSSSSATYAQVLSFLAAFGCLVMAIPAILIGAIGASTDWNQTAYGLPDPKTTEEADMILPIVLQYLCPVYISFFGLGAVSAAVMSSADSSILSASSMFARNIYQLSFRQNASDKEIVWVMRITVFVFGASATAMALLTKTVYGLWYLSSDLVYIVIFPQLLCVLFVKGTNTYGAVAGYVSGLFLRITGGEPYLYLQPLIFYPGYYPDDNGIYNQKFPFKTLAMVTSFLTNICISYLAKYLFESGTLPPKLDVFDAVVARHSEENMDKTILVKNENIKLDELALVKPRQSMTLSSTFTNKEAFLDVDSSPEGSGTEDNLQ

[17] = molecular target: T7, High affinity choline transporter 1; assay: CHT inhibitors, dose response, cell-based, 10-point CRC, membrane potential dye (AID 588401); format: functional;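 also: membrane potential dye fluorescence of choline-evoked depolarization via CHT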
INS1 = assay: beta cell apoptosis inhibitors, cytokine rescue, dose response, luminescence, retest (AID 449756); format: functional, cell-based; details: Rattus norvegicus;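 also: cell death triggered by IL-1 beta plus TNF-alpha plus IFN-gamma mixture; protective hits raise ATP signal compared with cytokine alone wells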
Protein Wnt-3a = Protein Wnt-3a (Mus musculus, UniProt P27467); assay: Wnt3a-driven reporter signaling inhibition, dose response, selectivity assay for Gli-SUFU antagonist project, Wnt-LIGHT cells, luminescence (AID 651570); format: functional; details: read-out: IC50_Mean;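 also: Wnt-LIGHT reporter cells stimulated with conditioned medium from Wnt3a-producing cells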
H4 = assay: Luminescence Cell-Based Dose Response HTS to Identify Activators of 5'UTR Stem-Loop Driven Prion Protein mRNA Translation in H4 Neuroglioblastoma Cells. [Related pubchem assays: 1829 (Project Summary), 1814 (Primary HTS)]; format: functional; details: Homo sapiens
[18] = Luminescence Cell-Based Dose Confirmation HTS to Identify Activators of 5'UTR Stem-Loop Driven Alpha-Synuclein mRNA Translation in H4 Neuroglioblastoma Cells. [Related pubchem assays: 1829 (Project Summary), 1814 (Primary HTS)]; format: functional
[19] = Luminescence Cell-Based Dose Response HTS to Identify Activators of Luciferase Translation or Activity in H4 […] Cells. [Related pubchem assays: 1829 (Project Summary), 1814 (Primary HTS)]; format: functional
[20] = HEp-2 cell cytotoxicity, dose response, cytotoxicity control for RSV inhibitor project, HTS (AID 2410); format: functional; details: human respiratory syncytial virus
HeLa = assay: HeLa cell cytotoxicity, dose response, cytotoxicity control for MITF activator project, CellTiter-Glo luminescence, cherry-pick samples (AID 540259); format: functional, cell-based; details: Homo sapiens

T1 sequence (P63165 whole entry): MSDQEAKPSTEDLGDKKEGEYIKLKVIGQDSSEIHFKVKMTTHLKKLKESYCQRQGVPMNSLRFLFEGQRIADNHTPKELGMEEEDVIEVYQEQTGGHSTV
T2 sequence (P65502 whole entry): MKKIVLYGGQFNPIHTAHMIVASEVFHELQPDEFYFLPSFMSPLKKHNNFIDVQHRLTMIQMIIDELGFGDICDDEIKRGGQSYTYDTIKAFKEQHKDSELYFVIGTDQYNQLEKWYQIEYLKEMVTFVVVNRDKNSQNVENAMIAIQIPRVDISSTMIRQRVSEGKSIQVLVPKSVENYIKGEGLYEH
Genome polyprotein, sequence (P29990 2492-3391 limits assumed): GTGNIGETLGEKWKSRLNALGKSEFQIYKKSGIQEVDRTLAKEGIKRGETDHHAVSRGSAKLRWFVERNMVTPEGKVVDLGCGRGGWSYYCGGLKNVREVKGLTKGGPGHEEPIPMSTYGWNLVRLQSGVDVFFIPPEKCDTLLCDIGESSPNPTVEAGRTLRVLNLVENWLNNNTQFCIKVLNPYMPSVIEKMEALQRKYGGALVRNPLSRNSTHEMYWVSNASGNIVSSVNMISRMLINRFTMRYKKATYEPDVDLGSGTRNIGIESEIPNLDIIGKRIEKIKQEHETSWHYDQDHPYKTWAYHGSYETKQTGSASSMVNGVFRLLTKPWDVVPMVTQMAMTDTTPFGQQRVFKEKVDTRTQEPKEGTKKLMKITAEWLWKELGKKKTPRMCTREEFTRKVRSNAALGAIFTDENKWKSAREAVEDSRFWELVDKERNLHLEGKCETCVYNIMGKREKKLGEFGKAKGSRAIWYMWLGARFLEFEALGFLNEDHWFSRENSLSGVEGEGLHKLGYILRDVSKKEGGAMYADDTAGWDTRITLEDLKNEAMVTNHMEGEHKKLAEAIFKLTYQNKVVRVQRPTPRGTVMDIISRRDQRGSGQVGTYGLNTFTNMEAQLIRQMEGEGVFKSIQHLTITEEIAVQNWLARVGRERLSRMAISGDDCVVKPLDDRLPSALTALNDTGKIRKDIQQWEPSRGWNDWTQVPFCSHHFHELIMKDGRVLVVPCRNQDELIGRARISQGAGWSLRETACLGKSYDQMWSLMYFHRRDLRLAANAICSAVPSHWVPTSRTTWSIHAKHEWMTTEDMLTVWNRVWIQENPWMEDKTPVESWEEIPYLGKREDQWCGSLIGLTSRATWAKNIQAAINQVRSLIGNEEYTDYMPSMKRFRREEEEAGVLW
Protein Wnt-3a, sequence (P27467 whole entry): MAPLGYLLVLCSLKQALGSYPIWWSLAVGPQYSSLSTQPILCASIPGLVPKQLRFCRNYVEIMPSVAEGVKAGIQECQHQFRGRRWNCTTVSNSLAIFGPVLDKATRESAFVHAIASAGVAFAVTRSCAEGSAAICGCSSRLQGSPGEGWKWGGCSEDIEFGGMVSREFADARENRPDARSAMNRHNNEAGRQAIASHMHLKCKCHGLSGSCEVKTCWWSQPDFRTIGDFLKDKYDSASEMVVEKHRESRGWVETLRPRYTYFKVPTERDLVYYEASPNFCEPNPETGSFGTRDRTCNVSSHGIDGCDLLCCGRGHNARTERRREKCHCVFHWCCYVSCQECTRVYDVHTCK

## O=C(COC(=O)CCC(=O)c1ccc(F)cc1)Nc1ccc2[nH]c(O)nc2c1
[1]
  IC50: 17.6 µM (active)
[2]
  IC50: > 66.6 µM (inactive)

## Cc1ccc(S(=O)(=O)Nc2ccc(Nc3nccn4c(-c5cccc(OC(F)(F)F)c5)cnc34)cc2)cc1
[3]
  IC50: 27.2 µM (active)
[4]
  IC50: 16.2 µM (active)

## O=C(Nc1ccc(N2CCCC2)cc1)c1cc(Br)ccc1Cl
[3]
  IC50: 35.9 µM (active)
[4]
  IC50: 21.7 µM (active)

## C[C@@H]1CN([C@H](C)CO)C(=O)c2cc(NC(=O)c3ccncc3)ccc2O[C@@H]1CN(C)C(=O)Nc1ccccc1
[5]
  IC50: 12.8 µM (active)
[3]
  IC50: 35.2 µM (active)
[4]
  IC50: 26.9 µM (active)

## COc1ccc(C(=O)Nc2nc3cc4c(cc3s2)OCCO4)c(OC)c1
[1]
  IC50: 2.77 µM (active)
[2]
  IC50: > 66.6 µM (inactive)

## O=C(Nc1ccccc1)C1=C(c2ccccc2)S(=O)(=O)CCS1(=O)=O
[6]
  IC50: 123 µM (active)
[7]
  CC50: 71.9 µM (active)
[8]
  AC50: 1.42 µM (active)
Protein RecA
  EC50: 0.682 µM (active)
Genome polyprotein
  IC50: > 100 µM (active)
[9]
  EC50: 2.06 µM (active)
[10]
  AC50: 10.3 µM (active)
[11]
  AC50: 1.37 µM (active)
[12]
  EC50: 1.31 µM (active)
[13]
  AC50: 15.4 µM (active)
[14]
  IC50: 3.59 µM (active)
[15]
  AC50: 8.27 µM (active)

## Cn1c(-c2ccc(Cl)cc2)cnc1NCc1cc2c(cc1[N+](=O)[O-])OCO2
[6]
  IC50: 73.5 µM (active)
[7]
  CC50: 100 µM (active)

## COc1cccc(CCNC(=O)c2ccc(OC)c(OC3CCN(C(C)C)CC3)c2)c1
[16]
  IC50: 5 µM (active)
[17]
  IC50: 3.98 µM (active)

## CCCCSc1nc2sc3c(c2c(=O)n1-c1ccc(C)cc1)CCN(C)C3
INS1
  AC50: 10.1 µM (active)
Protein Wnt-3a
  IC50: 10.8 µM (active)

## COc1ccccc1N1CCN(C2=Nc3cccc4cccc2c34)CC1
H4
  EC50: 18.5 µM (active)
[18]
  EC50: 43.3 µM (active)
[19]
  EC50: 19.1 µM (active)
[20]
  CC50: 25.4 µM (active)
HeLa
  AC50: 27.1 µM (active)
